Peptide text beside a SMILES is read from it. * marks the point of attachment. Leuψ(CH2N)ThzNH2 = CC(C)C[C@@H](CN1CSC[C@H]1C(N)=O)N*; Hydrocinnamoyl = O=C(CCc1ccccc1)*
Test system: Human SK-Hep-1 cancers
Experiment: SK-Hep-1 human hepatocellular carcinoma xenograft in nude mice
Type: in vivo, mouse
Conditions: at therapeutic doses
Method: Human SK-Hep-1 cancers were transplanted sc. into both flank areas of female nude mice. The treatment started 47 days after transplantation as follows: Group 1: Control; Group 2: Peptide 14, 20 µg/day;. There were 8 animals in each group. The substances were dissolved in 0.1% dimethyl sulfoxide (DMSO) and diluted with 10% propylene glycol in water. Amounts of 0.1 ml of the solutions were injected once daily sc. The controls received vehicle only. Tumors and body weights were measured weekly and tumor volume was calculated. The experiment was terminated on day 135.

CC(C)C[C@@H](CN1CSC[C@H]1C(N)=O)NC(=O)[C@H](Cc1c[nH]cn1)NC(=O)CNC(=O)[C@@H](NC(=O)[C@H](C)NC(=O)[C@H](Cc1c[nH]c2ccccc12)NC(=O)[C@H](CCC(N)=O)NC(=O)CCc1ccccc1)C(C)C [Peptide 14, Hca-Gln-Trp-Ala-Val-Gly-His-Leu-ψ-Tac-NH2] (Hydrocinnamoyl-QWAVGH-{Leuψ(CH2N)ThzNH2})
toxic effects: no toxic effects

Reference: patent EP2198878A1, “Polypeptide bombesin antagonists” (University Of Miami, priority 2008, dated 2010)
